Like-named read-outs stand apart in the source and are kept apart here.
What was measured:
[1] = molecular target: full-length human PRMT8 isoform 1 (Homo sapiens, UniProt Q9NR22); experiment: PRMT8 Biochemical Assay (3H-SAM Flashplate, peptide substrate)
Summary of the method: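 Full-length human PRMT8 (1.5 nM, E. coli-expressed, GST removed) preincubated 30 min at room temperature with compound, then reacted with 50 nM 3H-SAM plus 550 nM cold SAM and 150 nM biotinylated H4 31-45 peptide in 20 mM Bicine pH 7.6, 1 mM TCEP, 0.005% BSG, 0.002% Tween 20, 2% DMSO. Quenched with 400 uM cold SAM; labelled peptide captured on streptavidin Flashplate, % inhibition versus 1 mM SAH and DMSO controls fitted to 4- or 3-parameter curve.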

[2] = molecular target: full-length human PRMT1 isoform 1 (GST-tagged) (Homo sapiens, UniProt Q99873); experiment: PRMT1 Biochemical Assay (3H-SAM Flashplate, peptide substrate)
Summary of the method: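 GST-tagged full-length PRMT1 from baculovirus-infected cells, preincubated 30 min at room temperature with compound in 20 mM Bicine pH 7.6, TCEP, BSG, Tween 20. Reaction started with 3H-SAM plus biotinylated peptide, stopped with 300 uM unlabelled SAM. Streptavidin Flashplate capture and scintillation counting; % inhibition curve-fitted for IC50.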

[3] = single experiment or average of multiple experiments, read-out: Biochemical IC50 PRMT8
[4] = single experiment or average of multiple experiments
[5] = read-out: Biochemical IC50 PRMT8
[6] = Biochemical IC50 PRMT8, single experiment or average of multiple experiments

Sequence of full-length human PRMT1 isoform 1 (GST-tagged) (Q99873 with tags, fused parts or gaps): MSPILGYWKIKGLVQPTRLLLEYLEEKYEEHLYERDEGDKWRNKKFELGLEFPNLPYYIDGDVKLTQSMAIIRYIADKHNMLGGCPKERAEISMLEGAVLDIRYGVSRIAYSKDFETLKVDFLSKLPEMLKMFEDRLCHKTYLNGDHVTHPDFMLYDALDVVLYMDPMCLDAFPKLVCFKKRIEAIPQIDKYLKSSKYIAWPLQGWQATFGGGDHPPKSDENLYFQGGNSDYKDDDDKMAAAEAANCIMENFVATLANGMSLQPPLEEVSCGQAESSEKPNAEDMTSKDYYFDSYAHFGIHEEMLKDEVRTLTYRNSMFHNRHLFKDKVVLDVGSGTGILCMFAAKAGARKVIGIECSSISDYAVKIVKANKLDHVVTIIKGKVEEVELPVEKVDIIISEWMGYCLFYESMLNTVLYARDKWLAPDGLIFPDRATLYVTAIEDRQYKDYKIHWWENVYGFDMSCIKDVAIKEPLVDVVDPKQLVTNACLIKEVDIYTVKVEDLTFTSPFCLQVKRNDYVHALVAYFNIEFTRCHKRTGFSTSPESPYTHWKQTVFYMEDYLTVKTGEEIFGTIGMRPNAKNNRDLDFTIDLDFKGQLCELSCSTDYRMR
Sequence of full-length human PRMT8 isoform 1 (Q9NR22 whole entry, canonical isoform): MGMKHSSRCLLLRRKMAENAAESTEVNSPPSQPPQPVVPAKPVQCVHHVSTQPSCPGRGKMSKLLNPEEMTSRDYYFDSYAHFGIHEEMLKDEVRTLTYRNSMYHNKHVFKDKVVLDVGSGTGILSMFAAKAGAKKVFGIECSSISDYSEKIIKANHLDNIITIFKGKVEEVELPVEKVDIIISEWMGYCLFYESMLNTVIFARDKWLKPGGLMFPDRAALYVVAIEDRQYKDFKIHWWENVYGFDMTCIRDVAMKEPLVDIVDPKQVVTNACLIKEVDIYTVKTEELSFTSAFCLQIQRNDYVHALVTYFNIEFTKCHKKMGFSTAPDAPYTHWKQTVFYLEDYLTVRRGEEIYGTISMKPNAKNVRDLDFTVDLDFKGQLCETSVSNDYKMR

Row | Structure (SMILES) | IC50 [1, 3] [nM] | IC50 [2, 4] [nM] | IC50 [1, 5] [nM] | IC50 [2] [nM] | IC50 ([1]; Biochemical IC50 PRMT8) [nM] | IC50 [1, 6] [nM]
1 | CNCCN(C)Cc1c[nH]nc1C#Cc1cccc(OC)c1 [Compound 1] | 390 | 10 | – | – | – | –
2 | CNCCN(C)Cc1c[nH]nc1C#Cc1ccc(C(C)(C)C)cc1 [Compound 2] | 170 | 10 | – | – | – | –
3 | CNCCN(C)Cc1c[nH]nc1C#Cc1ccc(F)cc1 [Compound 4] | 590 | 20 | – | – | – | –
4 | CNCCN(C)Cc1c[nH]nc1/C=C/c1ccc(-c2ccccc2)cc1 [Compound 5] | 420 | 10 | – | – | – | –
5 | CNCCN(C)Cc1c[nH]nc1/C=C/c1ccc(C(F)(F)F)cc1 [Compound 6] | 240 | 40 | – | – | – | –
6 | CNCCN(C)Cc1c[nH]nc1/C=C/c1ccc(OC)cc1 [Compound 7] | 520 | 10 | – | – | – | –
7 | Cc1ccc(/C=C/c2n[nH]cc2CN(C)CCN)cc1 [Compound 8] | 360 | 20 | – | – | – | –
8 | CN(CCN)Cc1c[nH]nc1C1=CCOCC1 [Compound 10] | 1920 | 390 | – | – | – | –
9 | COc1cc(/C=C/c2n[nH]cc2CN(C)CCN)cc(OC)c1 [Compound 11] | 250 | 10 | – | – | – | –
10 | CN(CCN)Cc1c[nH]nc1C1CC1 [Compound 12] | > 10000 | 1580 | > 10000 | – | – | –
11 | CN(CCN)Cc1c[nH]nc1/C=C/c1ccc(F)cc1F [Compound 13] | 300 | 10 | – | – | – | –
12 | CN(CCN)Cc1c[nH]nc1/C=C/c1cc(C(F)(F)F)cc(C(F)(F)F)c1 [Compound 14] | 660 | 90 | – | – | – | –
13 | CN(CCN)Cc1c[nH]nc1/C=C/c1cc(F)cc(F)c1 [Compound 15] | 700 | 50 | – | – | – | –
14 | CN(CCN)Cc1c[nH]nc1/C=C/c1cccc(C(F)(F)F)c1 [Compound 16] | 690 | 20 | – | – | – | –
15 | COc1cccc(/C=C/c2n[nH]cc2CN(C)CCN)c1 [Compound 17] | 410 | 10 | – | – | – | –
16 | CN(CCN)Cc1c[nH]nc1/C=C/c1ccc(C(F)(F)F)cc1 [Compound 18] | 40 | – | – | – | – | –
17 | COC/C=C/c1n[nH]cc1CN(C)CCN [Compound 19] | 2300 | 190 | – | – | – | –
18 | CN(CCN)Cc1c[nH]nc1/C=C/c1cccc(F)c1 [Compound 20] | 470 | 20 | – | – | – | –
19 | CC(C)c1n[nH]cc1CN(C)CCN [Compound 21] | 9560 | 1490 | – | – | – | –
20 | CN(CCN)Cc1c[nH]nc1C1CCCCC1 [Compound 22] | 300 | 10 | – | – | – | –
21 | CN(CCN)Cc1c[nH]nc1CCc1ccc(F)cc1 [Compound 23, N^1-((3-(4-fluorophenethyl)-1H-pyrazol-4-yl)methyl)-N^1-methylethane-1,2-diamine] | 280 | 10 | – | – | – | –

Row | Structure (SMILES) | IC50 [1, 3] [nM] | IC50 [2, 4] [nM] | IC50 [1, 5] [nM] | IC50 [2] [nM] | IC50 ([1]; Biochemical IC50 PRMT8) [nM] | IC50 [1, 6] [nM]
22 | CN(CCN)Cc1c[nH]nc1/C=C/Cc1ccccc1 [Compound 24] | 300 | 20 | – | – | – | –
23 | CN(CCN)Cc1c[nH]nc1C1=CCCC1 [Compound 25] | 2860 | 250 | – | – | – | –
24 | CN(CCN)Cc1c[nH]nc1C1CCC1 [Compound 26] | 5630 | – | – | – | – | –
25 | CN(CCN)Cc1c[nH]nc1C(C)(C)C [Compound 27] | > 10000 | – | > 10000 | – | – | –
26 | CC(C)Cc1n[nH]cc1CN(C)CCN [Compound 28, N^1-((3-iso-butyl-1H-pyrazol-4-yl)methyl)-N^1-methylethane-1,2-diamine] | 1680 | 180 | – | – | – | –
27 | CCCc1n[nH]cc1CN(C)CCN [Compound 29] | 3810 | – | – | – | – | –
28 | Cc1n[nH]cc1CN(C)CCN [Compound 30] | > 10000 | – | – | – | – | –
29 | CN(CCN)Cc1c[nH]nc1C1CCCC1 [Compound 31] | 1150 | 110 | – | – | – | –
30 | CNCCN(C)Cc1c[nH]nc1C1CCN(C(=O)Cc2ccccc2)CC1 [Compound 32] | 770 | 20 | – | – | – | –
31 | CN(CCN)Cc1n[nH]cc1C1CCCCC1 [Compound 33] | 500 | 20 | – | – | – | –
32 | CNCCN(C)Cc1c[nH]nc1C1CCN(C(=O)C(C)C)CC1 [Compound 34] | 440 | 20 | – | – | – | –
33 | CC1CCC(c2c[nH]nc2CN(C)CCN)CC1 (stereo not shown) [Compound 35] | 140 | – | – | – | – | –
34 | CN(CCN)Cc1n[nH]cc1C1CCC(C)(C)CC1 [Compound 36] | 280 | – | – | – | – | –
35 | CC1CCC(c2n[nH]cc2CN(C)CCN)CC1 (stereo not shown) [Compound 37, N^1-methyl-N^1-((3-(4-methylcyclohexyl)-1H-pyrazol-4-yl)methyl)ethane-1,2-diamine] | 130 | 10 | – | – | – | –
36 | CN(CCN)Cc1c[nH]nc1C1CCC(C)(C)CC1 [Compound 38, N^1-((3-(4,4-dimethylcyclohexyl)-1H-pyrazol-4-yl)methyl)-N^1-methylethane-1,2-diamine] | 260 | – | – | – | – | –
37 | CNCCN(C)Cc1c[nH]nc1C1CCN(CC(C)C)CC1 [Compound 39, N^1-((3-(1-isobutylpiperidin-4-yl)-1H-pyrazol-4-yl)methyl)-N^1,N^2-dimethylethane-1,2-diamine] | 360 | – | – | – | – | –
38 | CNCCN(C)Cc1c[nH]nc1C1CCN(C(=O)CC(C)C)CC1 [Compound 40, 3-methyl-1-(4-(4-((methyl(2-(methylamino)ethyl)amino)methyl)-1H-pyrazol-3-yl)piperidin-1-yl)butan-1-one] | 7010 | 20 | – | – | – | –
39 | CNCCN(C)Cc1c[nH]nc1C1CCN(C)CC1 [Compound 41] | 350 | 10 | – | – | – | –
40 | CNCCN(C)Cc1c[nH]nc1C1CCNCC1 [Compound 42] | 30 | – | – | – | – | –
41 | CN(CCN)Cc1n[nH]cc1C1CCC(N2CCOCC2)CC1 (stereo not shown) [Compound 44, N^1-methyl-N^1-((4-(4-morpholinocyclohexyl)-1H-pyrazol-3-yl)methyl)ethane-1,2-diamine] | 62.4 | – | – | – | – | –
42 | CN(CCN)Cc1c[nH]nc1C1CCC2(CCCC2)CC1 [Compound 45] | 5.3 | 2.8 | – | < 100 | – | –

Row | Structure (SMILES) | IC50 [1, 3] [nM] | IC50 [2, 4] [nM] | IC50 [1, 5] [nM] | IC50 [2] [nM] | IC50 ([1]; Biochemical IC50 PRMT8) [nM] | IC50 [1, 6] [nM]
43 | CNCCN(C)Cc1c[nH]nc1C1CCC2(CCCCC2)CC1 [Compound 46] | 6.2 | 7.9 | – | < 100 | – | –
44 | CNCCN(C)Cc1cn(C)nc1C1CCC2(CCCC2)CC1 [Compound 47] | 12.5 | 4.3 | – | < 100 | – | –
45 | CNCCN(C)Cc1c[nH]nc1C1CCC2(CCCC2)CC1 [Compound 48] | 8.3 | 7.4 | – | < 100 | – | –
46 | CNCCN(C)Cc1cnn(C)c1C1CCC2(CCCC2)CC1 [Compound 49] | 7.3 | 4.3 | – | < 100 | – | –
47 | CNCCN(C)Cc1c[nH]nc1C1CCC(C(C)C)CC1 (stereo not shown) [Compound 50] | 11.2 | 8.6 | – | < 100 | – | –
48 | CNCCN(C)Cc1c[nH]nc1C1CCC2(CCCO2)CC1 (stereo not shown) [Compound 51] | 21.4 | 9.4 | – | < 100 | – | –
49 | CNCCN(C)Cc1c[nH]nc1C1CCC(C)(C)CC1 [Compound 52] | 10.4 | 4.7 | – | < 100 | – | –
50 | CNCCN(C)Cc1c[nH]nc1C1CCC(COC)CC1 (stereo not shown) [Compound 53] | 12.8 | 10.5 | – | < 100 | – | –
51 | CNCCN(C)Cc1c[nH]nc1C1CCC2(CCOC2)CC1 (stereo not shown) [Compound 54] | 24.7 | 8 | – | < 100 | – | –
52 | CNCCN(C)Cc1c[nH]nc1C1CCC(CCOC)CC1 (stereo not shown) [Compound 55] | 24.7 | 12.8 | – | < 100 | – | –
53 | CNCCN(C)Cc1c[nH]nc1C1CCC(OC(C)C)CC1 (stereo not shown) [Compound 56] | 32 | 13.8 | – | < 100 | – | –
54 | CNCCN(C)Cc1c[nH]nc1C1CCC(COC)(COC)CC1 [Compound 57] | 30.1 | 18.6 | – | < 100 | – | –
55 | CNCCN(C)Cc1c[nH]nc1C1CCC(OCCOC)CC1 (stereo not shown) [Compound 58] | 72.1 | 26.5 | – | < 100 | – | –
56 | CNCCN(C)Cc1c[nH]nc1C1CC(C)(C)OC(C)(C)C1 [Compound 59] | 48.4 | 19.6 | – | < 100 | – | –
57 | CNCCN(C)Cc1c[nH]nc1C1CCC(COCCOC)(COCCOC)CC1 [Compound 60] | 129 | 27.5 | – | < 100 | – | –
58 | CNCCN(C)Cc1c[nH]nc1C1CCC(COC(C)C)(COC(C)C)CC1 [Compound 61] | – | 20.5 | – | < 100 | – | –
59 | CNCCN(C)Cc1c[nH]nc1C1CCC2(CCCCC2)OC1 (stereo not shown) [Compound 62] | 20 | 11.9 | < 100 | < 100 | – | –
60 | CNCCN(C)Cc1c[nH]nc1C1CCC2(CC1)CC(C)OC(C)C2 (stereo not shown) [Compound 63] | 12 | 9 | < 100 | < 100 | – | –
61 | CNCCN(C)Cc1c[nH]nc1C1CCC2(CCC(C)(C)CC2)OC1 (stereo not shown) [Compound 65] | 13.6 | 9.65 | < 100 | < 100 | – | –
62 | CNCCN(C)Cc1c[nH]nc1[C@H]1CC[C@@]2(CC1)CC(C)(C)CO2 [Compound 133, Methyl[2-(methylamino)ethyl]([3-[(5s,8s)-3,3-dimethyl-1-oxaspiro[4.5]decan-8-yl]-1H-pyrazol-4-yl]methyl)amine] | – | – | – | – | < 100 | 9.1
63 | CNCCN(C)Cc1c[nH]nc1[C@H]1CC[C@]2(CC1)CC(C)(C)CO2 [Compound 134, methyl[2-(methylamino)ethyl]([3-[(5r,8r)-3,3-dimethyl-1-oxaspiro[4.5]decan-8-yl]-1H-pyrazol-4-yl]methyl)amine] | – | – | – | – | < 100 | 24.8

— patent US11512053B2, “Arginine methyltransferase inhibitors and uses thereof” (priority 2013, dated 2022)
